The structures appear in SMILES notation. Several values for one entry are separate records, joined by “and”; a condition that tells them apart may be missing. Identical values can stand only once.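 Step 1: Grow cells in 96-well plates. Step 2: Expose to compound for 48 hours at 5 concentrations. Step 3: Interpolate endpoints linearly; if unreached, use highest concentration. Here, GI50 denotes the concentration required for 50% inhibition of growth. TGI: total growth inhibition.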

Among the test systems are 786-0 renal; CAKI-1 renal; HOP-92 NSCLC; LOX IMVI melanoma; MALME-3M melanoma; MCF7 breast; OVCAR-5 ovarian; RPMI-8226 leukemia; SF-268 CNS; SK-MEL-2 melanoma.
What all share (experiment): inhibition of tumour cell growth, NCI panel, 48 h

In the case of `O=C(Nc1ccc(OS(=O)(=O)c2ccc(F)cc2)cc1)C12CC3CC(CC(C3)C1)C2`, the GI50 in the test with 786-0 renal is 8.33 µM; in the test with CAKI-1 renal, 29.4 µM; with HOP-92 NSCLC, 3.45 µM; with LOX IMVI melanoma, above 27.5 µM; in the test with MALME-3M melanoma, 9.13 µM; in the test with MCF7 breast it was 0.641 µM. Further, the GI50 with OVCAR-5 ovarian is 26.1 µM; in the test on RPMI-8226 leukemia, 0.403 µM; in the test on SF-268 CNS, 19.8 µM; with SK-MEL-2 melanoma, 12.9 µM. In addition, the TGI in the test with 786-0 renal is 44.5 µM; in the test on CAKI-1 renal it was above 100 µM; in the test on HOP-92 NSCLC it was 18.1 µM; with LOX IMVI melanoma it was above 100 µM; in the test on MALME-3M melanoma, 54.4 µM; with MCF7 breast, above 100 µM. The TGI is above 100 µM with OVCAR-5 ovarian, above 100 µM in the test on RPMI-8226 leukemia, above 100 µM with SF-268 CNS and 39.3 µM in the test with SK-MEL-2 melanoma.
On to `C=CC(=O)N[C@@H]1CN(c2nc(Nc3cn(C)nc3OC)c3ncn(C)c3n2)C[C@H]1F`, for which the GI50 in the test on 786-0 renal was 28.1 µM; in the test with CAKI-1 renal it was 1.22 µM; in the test with HOP-92 NSCLC it was 17.3 µM; with LOX IMVI melanoma, 30 µM; in the test on MALME-3M melanoma, 23.4 µM; in the test with MCF7 breast it was 17.7 µM. Also, the GI50 was 11.5 µM in the test on OVCAR-5 ovarian, above 71.7 µM with RPMI-8226 leukemia, 21.5 µM in the test with SF-268 CNS and 26.1 µM with SK-MEL-2 melanoma. The TGI with 786-0 renal is above 100 µM; in the test with CAKI-1 renal, above 100 µM; in the test on HOP-92 NSCLC it was 70.7 µM; in the test with LOX IMVI melanoma, above 100 µM; in the test on MALME-3M melanoma, above 100 µM; in the test with MCF7 breast, above 100 µM. The TGI in the test with OVCAR-5 ovarian was above 100 µM; with RPMI-8226 leukemia, above 100 µM; in the test with SF-268 CNS it was above 100 µM; with SK-MEL-2 melanoma, 78.3 µM.
Take `COc1ccc(C(=O)/C=C/c2sc(Cl)nc2Cl)cc1`: the GI50 in the test with 786-0 renal was 1.94 µM; with CAKI-1 renal, 1.7 µM; in the test with HOP-92 NSCLC, 4.06 µM; with LOX IMVI melanoma, 0.33 µM; in the test with MALME-3M melanoma it was 0.805 µM; in the test with MCF7 breast, 1.75 µM. The GI50 is 3.01 µM with OVCAR-5 ovarian, 1.36 µM with RPMI-8226 leukemia, 3.23 µM with SF-268 CNS and 11.1 µM with SK-MEL-2 melanoma. In addition, the TGI in the test with 786-0 renal amounted to 4.94 µM; in the test with CAKI-1 renal it was 5.45 µM; with HOP-92 NSCLC it was 18 µM; in the test on LOX IMVI melanoma, 1.36 µM; in the test on MALME-3M melanoma, 3.33 µM; in the test on MCF7 breast, 4 µM. The TGI amounted to 13.3 µM with OVCAR-5 ovarian, 4.77 µM with RPMI-8226 leukemia, 16.4 µM in the test with SF-268 CNS and 35.5 µM with SK-MEL-2 melanoma.
Take `CNC(=O)c1cc(Oc2ccc3nc(NC(=O)Nc4ccc(CN5CCOCC5)c(C(F)(F)F)c4)sc3c2)ccn1`: the GI50 with 786-0 renal was 2.22 µM; in the test with CAKI-1 renal, 2.05 µM; with HOP-92 NSCLC it was 1.44 µM; in the test with LOX IMVI melanoma, 1.82 µM; in the test on MALME-3M melanoma, 1.44 µM; in the test with MCF7 breast, 1.75 µM. Besides, the GI50 in the test with OVCAR-5 ovarian was 2.44 µM; in the test on RPMI-8226 leukemia, 1.72 µM; with SF-268 CNS, 3.22 µM; in the test on SK-MEL-2 melanoma, 2.74 µM. Also, the TGI with 786-0 renal is 4.32 µM; in the test on CAKI-1 renal, 6.83 µM; in the test on HOP-92 NSCLC it was 3.64 µM; in the test on LOX IMVI melanoma, 4.34 µM; in the test with MALME-3M melanoma it was 3.98 µM; in the test with MCF7 breast, 4.63 µM. Moreover, the TGI in the test with OVCAR-5 ovarian was determined as 6.9 µM; in the test with RPMI-8226 leukemia it was 4.49 µM; in the test on SF-268 CNS, 14.6 µM; in the test on SK-MEL-2 melanoma, 7.81 µM.
`O=C(O)C1C2C=CC(O2)C1C(=O)NCc1cccnc1` (stereo not given): the TGI in the test on 786-0 renal, in the test on CAKI-1 renal, in the test on HOP-92 NSCLC, in the test on LOX IMVI melanoma, with MALME-3M melanoma and in the test with MCF7 breast was above 100 µM in each case. For the same compound, the TGI with OVCAR-5 ovarian, in the test with RPMI-8226 leukemia, with SF-268 CNS and with SK-MEL-2 melanoma was above 100 µM in each case.
On to `COc1cc2c(Oc3ccc(NC(=O)C4(C(=O)Nc5ccc(F)cc5)CC4)cc3F)ccnc2cc1OCCCN1CCOCC1`, for which the GI50 in the test with 786-0 renal is 1.61 µM and 1.54 µM; in the test on CAKI-1 renal, 0.547 µM and 0.768 µM; in the test on HOP-92 NSCLC, 0.243 µM and 0.0433 µM; in the test on LOX IMVI melanoma it was 0.713 µM; with MALME-3M melanoma, 0.635 µM and 0.571 µM; in the test with MCF7 breast, 0.515 µM and 0.546 µM. In addition, the GI50 is 0.885 µM and 1.35 µM in the test with OVCAR-5 ovarian; 2.02 µM and 1.68 µM with RPMI-8226 leukemia; 0.858 µM and 1.19 µM in the test on SF-268 CNS; 1.44 µM and 1.63 µM in the test on SK-MEL-2 melanoma. The TGI in the test on 786-0 renal is 3.11 µM and 2.99 µM; with CAKI-1 renal it was 1.97 µM and > 4.86 µM; in the test on HOP-92 NSCLC, 1.65 µM and 0.991 µM; in the test on LOX IMVI melanoma, 1.95 µM; in the test with MALME-3M melanoma, 2.51 µM and 2.05 µM; in the test on MCF7 breast it was 2.03 µM and 3 µM. Besides, the TGI with OVCAR-5 ovarian is 2.7 µM and > 8.7 µM; with RPMI-8226 leukemia, 5.02 µM and 7.07 µM; in the test with SF-268 CNS it was 2.37 µM and 7.01 µM; in the test with SK-MEL-2 melanoma it was 2.93 µM and 3.74 µM.
In the case of `CC[C@@]1(O)C(=O)OCc2c1cc1n(c2=O)Cc2cc3cc(Cl)ccc3nc2-1`, the GI50 in the test with 786-0 renal was 0.00519 µM; in the test on HOP-92 NSCLC, 0.0256 µM and 0.0415 µM; in the test on LOX IMVI melanoma it was 0.00191 µM; in the test with MALME-3M melanoma it was 0.0305 µM and 0.0444 µM; in the test on MCF7 breast, 0.00364 µM; in the test on OVCAR-5 ovarian, 0.0635 µM and 0.0706 µM. Moreover, the GI50 in the test on RPMI-8226 leukemia was 0.0132 µM and 0.0334 µM; with SF-268 CNS, 0.00403 µM; with SK-MEL-2 melanoma it was 0.169 µM and 0.187 µM. Moreover, the TGI was 0.327 µM in the test with 786-0 renal; 1.07 µM and 1.19 µM in the test with CAKI-1 renal; 1.32 µM and 0.709 µM in the test on HOP-92 NSCLC; 0.818 µM and 0.564 µM in the test with MALME-3M melanoma; 0.363 µM and 0.318 µM in the test with OVCAR-5 ovarian; 0.677 µM and 0.691 µM in the test on SK-MEL-2 melanoma.
Consider `Cc1cc2c(cc1Cl)SC(N(c1ccccc1Cl)S(=O)(=O)c1ccc(Br)s1)=NS2(=O)=O`, for which the GI50 with 786-0 renal was 30 µM; in the test on CAKI-1 renal, 19.4 µM; in the test with HOP-92 NSCLC, 6.62 µM; in the test with LOX IMVI melanoma it was 12.1 µM; in the test with MALME-3M melanoma it was 13.8 µM; in the test on MCF7 breast, 8.88 µM. For the same compound, the GI50 in the test with OVCAR-5 ovarian was 60 µM; with RPMI-8226 leukemia, 24.8 µM; in the test with SF-268 CNS it was 12.7 µM; in the test with SK-MEL-2 melanoma, 12.8 µM. In addition, the TGI is above 100 µM with 786-0 renal; 48.4 µM with CAKI-1 renal; 21.8 µM in the test with HOP-92 NSCLC; 25.5 µM in the test on LOX IMVI melanoma; 39.4 µM in the test with MALME-3M melanoma; 28.8 µM with MCF7 breast. Moreover, the TGI was above 100 µM in the test with OVCAR-5 ovarian, 82.3 µM in the test with RPMI-8226 leukemia, 30.7 µM with SF-268 CNS and 43.7 µM with SK-MEL-2 melanoma.

For the origin of these results see PubChem BioAssay (NCI).
